What was measured:
[1] = Paraesthesia symptoms after ingesting edible gel or beta-alanine dissolved in water (Example 1); type: in vivo, human; conditions: 2 g beta-alanine ingested; following 20 minutes
Description: To prepare an edible gel containing free beta-alanine the contents of two packets of commercially available strawberry flavored gelatin gel were dissolved in 200 ml of boiling water. The contents were stirred continuously until the gel was completely dissolved. The gel was further fortified with the addition of a sachet of gelatin capsules. To this was added 80 g free beta-alanine (in a final volume of approximately 300 ml). The concentrated gel solution was poured into a 12×12 cm flat mould to a depth of approximately 2 cm and allowed to set to a stiff gel at 4° C. One square piece of gel (approximately 2×2×2 cm in size) contained approximately 2 g of beta-alanine.
In contrast, symptoms of paraesthesia were detected in subjects that ingested 2 g free beta-alanine dissolved in water. Thus the sustained release of free beta-alanine mitigates the symptoms of paraesthesia that are felt when equivalent amounts are administered in a single bolus dose.

[2] = Paraesthesia symptoms, drink versus delayed release capsules (Example 3); type: in vivo, human; conditions: 1.75 g beta-alanine; two subjects
From the text: Two subjects were given 1.75 g beta-alanine dissolved in water (formulated as a drink) or 5 capsules, each containing 0.35 g beta-alanine in a delayed release formulation.

[3] = tested on: muscle; conditions: administering to an individual
From the text: The dosing schedule that has been preferred for such administration (i.e., 8 times daily), however, leads to compliance issues and problems with paraesthesia. Thus, there is a need for improved supplements containing free beta-alanine or a biological source thereof in a sustained release formulation to increase compliance and decrease paraesthesia events.
During sustained intensive exercise or exercise sustained under conditions of local hypoxia, the accumulation of hydronium ions formed during glycolysis and the accumulation of lactate due to anaerobic metabolism can severely reduce the intracellular pH. The reduced pH can compromise the function of the creatine-phosphorylcreatine system. The decline in intracellular pH also can affect other functions within the cells such as the function of the contractile proteins in muscle fibers.

[4] = bolus single dose of 2-6 grams
[5] = tested on: muscle; conditions: following administration (supplementation); previous work; cited from earlier work

NCCC(=O)O [beta-alanine]
symptoms of paraesthesia [1]: detected | symptoms of paraesthesia [2]: reported symptoms of paraesthesia affecting the face, scalp, neck, arms, hands and buttocks | muscle beta-alanylhistidine peptide levels [3]: elevated | total work capacity of the muscle [3]: increased | paraesthesia [4]: results in paraesthesia | carnosine in muscle [5]: significantly increased

Reference: patent publication US12036196B2, “Compositions and methods for the sustained release of beta-alanine” (Natural Alternatives International, Inc., priority 2005, dated 2024)
